The test system of one assay is Tyrosinase. The assay is described as follows: Enzymatic assay of tyrosinase (L-tyrosine substrate, absorbance 280 nm). The format is biochemical. The conditions noted are these: compound 5 mM; for Increment in enzymatic activity (%): % enzymatic activity - 100; for Enzymatic activity (%): compared to activity of the enzyme without active compounds (100%). On the procedure: The following compounds with formulae (II), (III), (IV) and (V) were tested as defined above, all in a concentration of 5 mM:
Tyrosinase is a membrane glycoprotein that is expressed in melanosomes, specialised organelles in the endocytic pathway through which the synthesis and assembly of melanin takes place. The synthesis of melanin from tyrosine takes place in pigment-producing cells, namely melanocytes. Melanin produced in melanosomes is transferred to keratinocytes through said processes. Melanin is a polymer that absorbs light within a broad spectrum of wavelengths, and protects keratinocytes from the harmful effects of UV radiations. A peroxidase is involved in the first phase of the reaction, which converts the amino acid into […] alanine or DOPA. The enzyme tyrosinase is involved in the subsequent phase of the biosynthesis pathway that produces dopaquinone. Melanin is synthesised starting from precursors of tyrosine and DOPA, through the enzyme tyrosinase, which presents both […] and oxidase functions. Tyrosine is converted into L-DOPA (dihydroxyphenylalanine) and, then, into dopaquinone, which is red, until the brown melanin polymer is obtained. In a first branch of the pathway dopaquinone is converted into black polymeric melanins, while the reaction with cysteine forms a series of polymers that are similar among them and are called red polymeric melanins.
REAGENT A (potassium phosphate buffer, 50 mM, pH 6.5, 25° C.):
REGENT B (L-tyrosine solution 1 mM):
REAGENT C (tyrosinase solution):
Prepare a solution A+B as described below:
10 mL of Reagent A (potassium phosphate buffer 50 mM)
10 mL of Reagent B (L-tyrosine 1 mM)
Vortex the solution and, if necessary, restore pH 6.5, at 25° C. with HCl 1M or NaOH.
Prepare the solutions with the various concentrations of the compounds to be tested, and preserve at 4° C. until use.
Defrost the tyrosinase solution and keep it on ice in the dark until use.
Mix, at ambient temperature, the solution of potassium phosphate buffer (50 mM, pH 6.5), the above solution A+B and the solutions that include the compounds of the formula (I) to be tested.
Use the following parameters:
Measuring mode: absorbance;
Execution settings: 700 seconds.
First read the enzymatic activity of tyrosinase when there is only L-tyrosine to verify the actual enzyme/mL units and have a basic reference to later assess the effects of the compound examined on enzyme activity:
1 replicates for the blank test (one blank test for each concentration to be tested);
2 replicates for the test (one test for each concentration to be tested).
Prepare the mixtures in separate cuvettes, as described below:
Test the examined compounds with formulae (II), (III), (IV) and (V), as specified below: […]
Calculating the Inhibition or Induction of Enzymatic Activity
[formula] df=dilution factor (30 because 0.1 mL/3 mL tot) 0.001=change of A280 nm/min per unit of L-tyrosine at pH 6.5, 25° C. in a 3 mL reaction mixture; 0.1=volume (mL) of enzyme used Unit/mg solid=unit/mL of enzyme: mg solid/mL of enzyme Unit/mg protein=unit/mL of enzyme: mg protein/mL of enzyme Definition of unit=increment of A280 nm/min equal to 0.001, at 25° C., pH 6.5 in a 3 mL reaction volume containing L-tyrosine.
The percentage of enzymatic activity was calculated for each tested compound, compared to the activity of the enzyme (100% enzymatic activity) failing the presence of active compounds.
The increment percentage of enzymatic activity was later calculated (% enzymatic activity−100).

Assay [1] has as its system Hair follicles (HF) in anagen phase VI with normal pigmentation. Put plainly: Hair pigmentation in organ-cultured human hair follicles (quantitative Masson-Fontana melanin stain). The format is cell-based. How it is done:
The skin of the normal human scalp was taken from a person who was submitted to routine facial lifting surgery, after obtaining their informed consent. All experiments were performed in compliance with the Helsinki principles, with the Ethics Committee approval.
N^1-methyl-spermidine in the invention or the carrier as such (control group) were administered once every time the culture medium was changed, namely every 48 hours. The control compound administered was spermidine at a concentration of 0.5 μM.
The Masson-Fontana stain was administered to ensure histochemical visibility of melanin in frozen sections. Melanin was stained as brown granules and the degree of pigmentation was assessed with the quantitative Masson-Fontana technique. (Ito N., Ito T., Kromminga A., Bettermann A., Takigawa M., Kees F., Straub R. H., and Paus R. (2005): Human hair follicles display a functional equivalent of the hypothalamic-pituitary-adrenal axis and synthesise cortisol. (FASEB J 19, 1332-4)
This method is a highly sensitive and reliable indicator of variations in melanin synthesis, as proven by assays of enzymatic activity, and the expression of standard tyrosinase. […]
The intensity of the stain was analysed in a defined reference region of the hair follicle's pigmentation unit using the software ImageJ (National Institute of Health).

Four compounds from US9539191B2, “Composition for cosmetic use suitable to produce a pigmentation effect on hair” (Giuliani S.P.A., priority 2013, dated 2017) can be followed below.

Structures are written as SMILES.

Take `NCCCNCCCCNC1CCCCC1` [Cyclohexyl-spermidine, N-(3-aminopropyl)-N^1-cyclohexyl-1,4-butandiammine]: in the assay with Tyrosinase, the “Increment in enzymatic activity (%)” value was determined as 35.31% and the “Enzymatic activity (%)” value amounted to 135.31%.
The corresponding values for `CCNCCCCNCCCN` [Ethyl-spermidine, N-(3-aminopropyl)-N^1-ethyl-1,4-butandiammine] are 21.50% and 121.50%.
Take `CNCCCCNCCCN` [Methyl-spermidine, N-(3-aminopropyl)-N^1-methyl-1,4-butandiammine]: in the assay with Tyrosinase, the “Increment in enzymatic activity (%)” value came to 5.16% and the “Enzymatic activity (%)” value is recorded as 105.16%. Besides, the “absolute pigmentation intensity in hair follicles compared to spermidine (Spd)” value in assay [1] (0.5 μM vs spermidine 0.5 μM, FIG. 1) is “higher increase in absolute pigmentation intensity”. Moreover, the “melanin produced / (absolute) intensity of pigmentation in hair follicles compared to carrier” value in assay [1] (0.5 and 1.5 μM, administered every 48 hours, Masson-Fontana stain, FIGS. 1 and 2) is recorded as “increase in melanin produced”.
For `CCCNCCCCNCCCN` [Propyl-spermidine, N-(3-aminopropyl)-N^1-propyl-1,4-butandiammine], in the assay with Tyrosinase, the “Increment in enzymatic activity (%)” value turned out to be 31.29% and the “Enzymatic activity (%)” value is given as 131.29%.
